Where “and” joins values, the source holds several entries; their conditions need not be identical. Equal values may be shown once. Read-outs that look alike come from different tables or passages of the source.
Test: Pharmacokinetic study in male Sprague Dawley rats
Format: in vivo, rat
Details: for concentration at 0.033 h / concentration at 0.33 h / concentration at 1 h / concentration at 2 h / concentration at 4 h / concentration at 8 h / concentration at 24 h: male, Sprague Dawley
Experimental: The pharmacokinetic (PK) profile in plasma of Compound 1 was determined in male Sprague Dawley rats following single dose intravenous (IV) (2 mg/kg) and per os (PO) (10 mg/kg) administration. This study was performed under non-GLP conditions, and unless otherwise stated, all analytical reagents were at least standard laboratory reagent grade, and deionized water was prepared at the study site.
The characteristics of Compound 1 used in this study were as follows: molecular weight of base, 710.78; molecular weight of Compound 1 with salt, 824.81; purity on as is basis, 99.28%.
All animals were housed in cages with clean bedding and maintained and monitored for good health and at the discretion of the laboratory animal veterinarian. Certified rodent diet was provided, and water was available ad libitum. Environmental controls for the animal room were set to maintain a temperature of 22 to 25° C., humidity of 40-70% relative humidity, and a 12-hour light/12-hour dark cycle.
Normal healthy animals certified by the attending veterinarian were selected and acclimatized for a minimum of three days prior to initiation of the study. Animals were identified by body markings.
The rats were anaesthetized with a single dose of ketamine 50 mg/kg i.p. plus xylazine 6 mg/kg i.p. The right jugular was exposed, and a loose ligature was placed caudally, and the cranial end of the vein was ligated. A small incision was made between the ligatures into which a catheter (polyethylene 50 tubing with an internal diameter of 0.58 mm and outer diameter of 0.96 mm) was inserted. The catheter was secured in place by tying the loose ligature around the catheterized vessel. A small incision was made in the scapular region to serve as the exit site of the catheter. The catheter was subcutaneously tunneled and exteriorized through the scapular incision. A stay suture was placed in the scapular area. Patency was tested, and the catheter was filled with a locking solution (heparinized saline) and sealed with a stainless-steel plug. The incision was then sutured with sterile suturing material. Anti-septic solution was applied to the sutured site and the animal was placed back in its home cage. The animals were closely observed throughout the recovery period of 24 hours. The rats were freely moving in the cage (one rat per cage).
Test animals were weighed prior to drug administration, and the standard weight of the animals used was 190 grams. The animals were divided into two groups, IV group and PO group, with each group containing 3 test animals each and 2 spare animals. The IV dose was administered by intravenous injection into the tail vein and PO dose was administered via oral gavage needle. The dosing volume was 5 mL/kg body weight for both groups. The dosing concentration was 0.4 mg/mL for the IV group and 2 mg/mL for the PO group. The animals were in fasted state during the study.
For both dosing groups, blood was collected from the jugular vein (serial sampling) for plasma isolation at 0.033, 0.33, 1, 2, 4, 6, 8, and 24 hour timepoints. The anti-coagulant solution used was 6% (v/v) sodium citrate (200 mM, pH 4.79).
For sample collection, the animals were held to remove the first two drops of blood from the cannula to ensure removal of any excess heparinized saline before collection of blood. The external catheter was connected to a syringe and 0.20-0.30 mL of blood was collected in the syringe and transferred to a pre-labeled, pre-chilled tube. Blood volume was replaced by administering to the animal an equal volume of saline through the jugular vein. After blood collection from each animal, the sample from that animal was recorded in the sample collection sheet.
After collection of each blood sample, the blood sample was stored on ice prior to centrifugation. Blood samples were centrifuged within 20 minutes of collection to separate plasma. Centrifugation was conducted at 2500×g for 15 minutes at 4° C. […]

[1] = rat, plasma, 2 mg/kg IV, Male Sprague Dawley Rats, mean
[2] = rat, plasma, 10 mg/kg PO, Male Sprague Dawley Rats, mean

In the case of `COc1cc(-c2cn(C)c(=O)c(C)c2C)cc(OC)c1CN1CC[C@H](N2CCN(c3ccc(N[C@H]4CCC(=O)NC4=O)cc3F)CC2)C(F)(F)C1` [Compound 1, (S)-3-((4-(4-((S)-1-(2,6-dimethoxy-4-(1,4,5-trimethyl-6-oxo-1,6-dihydropyridin-3-yl)benzyl)-3,3-difluoropiperidin-4-yl)piperazin-1-yl)-3-fluorophenyl)amino)-piperidine-2,6-dione], the “Plasma Concentration, individual rats” value (2 mg/kg IV, 0.033 h) is reported as 827.34 ng/mL and 751.46 ng/mL, the “Plasma Concentration, individual rats” value (2 mg/kg IV, 0.33 h) is reported as 387.61 ng/mL and 411.63 ng/mL and the “Plasma Concentration, individual rats” value (2 mg/kg IV, 1 h) is reported as 253.11 ng/mL and 196.32 ng/mL. The “Plasma Concentration, individual rats” value (2 mg/kg IV, 2 h) was 175.63 ng/mL and 182.50 ng/mL, the “Plasma Concentration, individual rats” value (2 mg/kg IV, 4 h) was 82.15 ng/mL and 113.01 ng/mL and the “Plasma Concentration, individual rats” value (2 mg/kg IV, 8 h) was 66.27 ng/mL and 68.01 ng/mL. The “Plasma Concentration, individual rats” value (2 mg/kg IV, 24 h) was 2.51 ng/mL and 4.24 ng/mL, the “CI” value (2 mg/kg IV, Male Sprague Dawley Rats, mean) was 21.64 mL/min/kg and the concentration at 0.033 h (rat, plasma, intravenous, 2 mg/kg, 2 mg/kg IV, 0.033 h, read-out: Plasma Concentration, Average) was 811 ng/mL. For the same compound, the concentration at 0.033 h (rat, plasma, intravenous, 2 mg/kg, 2 mg/kg IV, 0.033 h, read-out: Plasma Concentration, individual rats) was 854 ng/mL, the concentration at 0.33 h (rat, plasma, intravenous, 2 mg/kg, 2 mg/kg IV, 0.33 h, read-out: Plasma Concentration, Average) was 395 ng/mL and the concentration at 0.33 h (rat, plasma, intravenous, 2 mg/kg, 2 mg/kg IV, 0.33 h, read-out: Plasma Concentration, individual rats) was 385 ng/mL. It also gave a concentration at 1 h (rat, plasma, intravenous, 2 mg/kg, 2 mg/kg IV, 1 h, read-out: Plasma Concentration, Average) of 202 ng/mL, a concentration at 1 h (rat, plasma, intravenous, 2 mg/kg, 2 mg/kg IV, 1 h, read-out: Plasma Concentration, individual rats) of 158 ng/mL and a concentration at 2 h (rat, plasma, intravenous, 2 mg/kg, 2 mg/kg IV, 2 h, read-out: Plasma Concentration, Average) of 181 ng/mL. For the same compound, the concentration at 2 h (rat, plasma, intravenous, 2 mg/kg, 2 mg/kg IV, 2 h, read-out: Plasma Concentration, individual rats) was 186 ng/mL, the concentration at 4 h (rat, plasma, intravenous, 2 mg/kg, 2 mg/kg IV, 4 h, read-out: Plasma Concentration, Average) was 107 ng/mL and the concentration at 4 h (rat, plasma, intravenous, 2 mg/kg, 2 mg/kg IV, 4 h, read-out: Plasma Concentration, individual rats) was 125 ng/mL. It also gave a concentration at 8 h (rat, plasma, intravenous, 2 mg/kg, 2 mg/kg IV, 8 h, read-out: Plasma Concentration, Average) of 61.9 ng/mL, a concentration at 8 h (rat, plasma, intravenous, 2 mg/kg, 2 mg/kg IV, 8 h, read-out: Plasma Concentration, individual rats) of 51.4 ng/mL and a concentration at 24 h (rat, plasma, intravenous, 2 mg/kg, 2 mg/kg IV, 24 h, read-out: Plasma Concentration, Average) of 3.76 ng/mL. For the same compound, the concentration at 24 h (rat, plasma, intravenous, 2 mg/kg, 2 mg/kg IV, 24 h, read-out: Plasma Concentration, individual rats) was 4.54 ng/mL, the concentration at 0.033 h (rat, plasma, oral, 10 mg/kg, 10 mg/kg PO, Male Sprague Dawley Rats, 0.033 h, Rat-1, read-out: Plasma Concentration (ng/mL) Rat-1) was 2.98 ng/mL and the concentration at 0.033 h (rat, plasma, oral, 10 mg/kg, 10 mg/kg PO, Male Sprague Dawley Rats, 0.033 h, Rat-2, read-out: Plasma Concentration (ng/mL) Rat-2) was 16.4 ng/mL. It also gave a concentration at 0.033 h (rat, plasma, oral, 10 mg/kg, 10 mg/kg PO, Male Sprague Dawley Rats, 0.033 h, Rat-3, read-out: Plasma Concentration (ng/mL) Rat-3) of 1.81 ng/mL, a concentration at 0.033 h (rat, plasma, oral, 10 mg/kg, 10 mg/kg PO, Male Sprague Dawley Rats, 0.033 h, average, read-out: Plasma Concentration Average) of 7.06 ng/mL and a concentration at 0.33 h (rat, plasma, oral, 10 mg/kg, 10 mg/kg PO, Male Sprague Dawley Rats, 0.33 h, Rat-1, read-out: Plasma Concentration (ng/mL) Rat-1) of 215 ng/mL. The concentration at 0.33 h (rat, plasma, oral, 10 mg/kg, 10 mg/kg PO, Male Sprague Dawley Rats, 0.33 h, Rat-2, read-out: Plasma Concentration (ng/mL) Rat-2) was 177 ng/mL, the concentration at 0.33 h (rat, plasma, oral, 10 mg/kg, 10 mg/kg PO, Male Sprague Dawley Rats, 0.33 h, Rat-3, read-out: Plasma Concentration (ng/mL) Rat-3) was 350 ng/mL and the concentration at 0.33 h (rat, plasma, oral, 10 mg/kg, 10 mg/kg PO, Male Sprague Dawley Rats, 0.33 h, average, read-out: Plasma Concentration Average) was 247 ng/mL. It also gave a concentration at 1 h (rat, plasma, oral, 10 mg/kg, 10 mg/kg PO, Male Sprague Dawley Rats, 1 h, Rat-1, read-out: Plasma Concentration (ng/mL) Rat-1) of 648 ng/mL, a concentration at 1 h (rat, plasma, oral, 10 mg/kg, 10 mg/kg PO, Male Sprague Dawley Rats, 1 h, Rat-2, read-out: Plasma Concentration (ng/mL) Rat-2) of 416 ng/mL and a concentration at 1 h (rat, plasma, oral, 10 mg/kg, 10 mg/kg PO, Male Sprague Dawley Rats, 1 h, Rat-3, read-out: Plasma Concentration (ng/mL) Rat-3) of 729 ng/mL. It also gave a concentration at 1 h (rat, plasma, oral, 10 mg/kg, 10 mg/kg PO, Male Sprague Dawley Rats, 1 h, average, read-out: Plasma Concentration Average) of 598 ng/mL, a concentration at 2 h (rat, plasma, oral, 10 mg/kg, 10 mg/kg PO, Male Sprague Dawley Rats, 2 h, Rat-1, read-out: Plasma Concentration (ng/mL) Rat-1) of 560 ng/mL and a concentration at 2 h (rat, plasma, oral, 10 mg/kg, 10 mg/kg PO, Male Sprague Dawley Rats, 2 h, Rat-2, read-out: Plasma Concentration (ng/mL) Rat-2) of 864 ng/mL. It also gave a concentration at 2 h (rat, plasma, oral, 10 mg/kg, 10 mg/kg PO, Male Sprague Dawley Rats, 2 h, Rat-3, read-out: Plasma Concentration (ng/mL) Rat-3) of 594 ng/mL, a concentration at 2 h (rat, plasma, oral, 10 mg/kg, 10 mg/kg PO, Male Sprague Dawley Rats, 2 h, average, read-out: Plasma Concentration Average) of 673 ng/mL and a concentration at 4 h (rat, plasma, oral, 10 mg/kg, 10 mg/kg PO, Male Sprague Dawley Rats, 4 h, Rat-1, *Outlier: Aberrant value, read-out: Plasma Concentration (ng/mL) Rat-1) of 227 ng/mL. For the same compound, the concentration at 4 h (rat, plasma, oral, 10 mg/kg, 10 mg/kg PO, Male Sprague Dawley Rats, 4 h, Rat-2, read-out: Plasma Concentration (ng/mL) Rat-2) was 593 ng/mL, the concentration at 4 h (rat, plasma, oral, 10 mg/kg, 10 mg/kg PO, Male Sprague Dawley Rats, 4 h, Rat-3, read-out: Plasma Concentration (ng/mL) Rat-3) was 420 ng/mL and the concentration at 4 h (rat, plasma, oral, 10 mg/kg, 10 mg/kg PO, Male Sprague Dawley Rats, 4 h, average, read-out: Plasma Concentration Average) was 506 ng/mL. It also gave a concentration at 8 h (rat, plasma, oral, 10 mg/kg, 10 mg/kg PO, Male Sprague Dawley Rats, 8 h, Rat-1, read-out: Plasma Concentration (ng/mL) Rat-1) of 304 ng/mL, a concentration at 8 h (rat, plasma, oral, 10 mg/kg, 10 mg/kg PO, Male Sprague Dawley Rats, 8 h, Rat-2, read-out: Plasma Concentration (ng/mL) Rat-2) of 527 ng/mL and a concentration at 8 h (rat, plasma, oral, 10 mg/kg, 10 mg/kg PO, Male Sprague Dawley Rats, 8 h, Rat-3, read-out: Plasma Concentration (ng/mL) Rat-3) of 370 ng/mL. The concentration at 8 h (rat, plasma, oral, 10 mg/kg, 10 mg/kg PO, Male Sprague Dawley Rats, 8 h, average, read-out: Plasma Concentration Average) was 400 ng/mL, the concentration at 24 h (rat, plasma, oral, 10 mg/kg, 10 mg/kg PO, Male Sprague Dawley Rats, 24 h, Rat-1, read-out: Plasma Concentration (ng/mL) Rat-1) was 21.5 ng/mL and the concentration at 24 h (rat, plasma, oral, 10 mg/kg, 10 mg/kg PO, Male Sprague Dawley Rats, 24 h, Rat-2, read-out: Plasma Concentration (ng/mL) Rat-2) was 49.3 ng/mL. For the same compound, the concentration at 24 h (rat, plasma, oral, 10 mg/kg, 10 mg/kg PO, Male Sprague Dawley Rats, 24 h, Rat-3, read-out: Plasma Concentration (ng/mL) Rat-3) was 36.8 ng/mL, the concentration at 24 h (rat, plasma, oral, 10 mg/kg, 10 mg/kg PO, Male Sprague Dawley Rats, 24 h, average, read-out: Plasma Concentration Average) was 35.8 ng/mL and the AUC(0-inf) [1] was 1540 ng·h/mL. It also gave an AUC(0-t) [1] of 1520 ng·h/mL, a C0 [1] of 879 ng/mL and an MRT last [1] of 4.82 h. The half-life [1] was 3.97 h, the Vd (rat, plasma, 2 mg/kg IV, Male Sprague Dawley Rats, mean, read-out: Vdss) was 6.7 L/kg and the AUC(0-inf) [2] was 6560 ng·h/mL. The AUC(0-t) [2] was 6290 ng·h/mL, the Cmax [2] was 747 ng/mL and the MRT last [2] was 7.34 h. It also gave a Tmax [2] of 1.33 h, a bioavailability [2] of 82.8% and a half-life [2] of 5.12 h.

Reference: patent publication US20240245677A1, “SELECTED COMPOUNDS FOR TARGETED DEGRADATION OF BRD9” (C4 THERAPEUTICS, INC., priority 2021, published 2024)
